Laboratory results: US10278931B2, “Composition for treatment of inflammatory bowel disease and atopic dermatitis” (INNOPHARMASCREEN INC., priority 2015, dated 2019)

Columns and labels:
IL-6, IL-22, IL-33 = test: Western blotting of cytokines in DNCB skin tissue lysates; assay type: in vivo, balb/c mice; conditions: changed slightly
Method: E. Western blotting analysis: Western blotting analysis was performed to verify differences in protein expression in the above antibody array experiment. Proteins from the tissue lysates were separated on SDS-PAGE. The electrophoresed proteins were then transferred onto the PVDF membranes. After washing with PBST solution, the PVDF membranes were blocked with 5% skim milk powder for 1 hour and then reacted with a primary antibody overnight at 4° C. The membranes were washed with PBST solution and reacted with a secondary antibody (anti-IgG) conjugated with horseradish peroxidase (HRP) for 1 hour at room temperature and examined with a photoresist film.

active caspase-1 = test: Western blotting of active caspase-1 in HMC-1 cells; assay type: cell-based, human
Method: (6) Western blotting analysis: Cells were seeded in a 6-well plate and then treated with a drug, and after a certain period of time, the cells were harvested. After harvest, the cells were washed with PBS and then lysed. 50 μg of tissue protein and cell extract protein were subjected to electrophoresis on 12% gel, transferred to nitrocellulose paper, and then blocked with 6% bovine serum albumin for 2 hours. Each protein was reacted with a primary antibody overnight and washed with PBS-tween. Thereafter, the resulting protein was reacted with a secondary antibody for 2 hours, washed, and then detected using an ECL solution kit.

inflammatory cytokines = test: Inflammatory cytokine production and mRNA expression in HMC-1 cells; assay type: cell-based, human
Method: (1) Cell culture: A human mast cell line (HMC-1) was cultured in an IMDM supplemented with 10% FBS at 37° C. and 5% CO2. Candidate materials were dissolved in DMSO, and then filtered using a 0.22 μm filter. The resulting candidate materials were diluted with DMSO and the HMC-1 cells were treated therewith.
(5) Reverse transcription-polymerase chain reaction (RT-PCR) quantitative real time PCR: Total RNA was isolated from cells and tissues, and cDNA was synthesized using a reverse transcriptase and was then reacted with cytokine primers to be analyzed, followed by PCR and real-time PCR. The RT-PCR products were subjected to electrophoresis using 1.5% agarose gel for analysis.

[1] = tested on: balb/c mice with DNCB-induced atopic dermatitis; test: DNCB-induced atopic dermatitis model; assay type: in vivo; conditions: DNCB-applied balb/c mice, concentration of 0.011 μM (so in the source)
caspase-1 [2] = target: T1, caspase-1 (Mus musculus, UniProt P29452); test: Caspase-1 assay in dorsal skin of DNCB-applied mice; assay type: in vivo; conditions: DNCB-applied balb/c mice, concentration-dependent
T1 construct: using the dorsal skin of DNCB-applied balb/c mice; from tissue; host or cells: dorsal skin of BALB/c mice
T1 sequence (P29452 119-402): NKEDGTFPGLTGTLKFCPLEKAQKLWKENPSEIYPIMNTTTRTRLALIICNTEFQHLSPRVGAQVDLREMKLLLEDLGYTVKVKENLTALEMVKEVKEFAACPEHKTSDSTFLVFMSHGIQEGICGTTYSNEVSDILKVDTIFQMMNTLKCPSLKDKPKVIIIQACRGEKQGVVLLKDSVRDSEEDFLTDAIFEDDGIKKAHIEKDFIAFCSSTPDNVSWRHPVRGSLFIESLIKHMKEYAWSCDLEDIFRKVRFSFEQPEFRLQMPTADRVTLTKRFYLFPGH
Method: (4) Caspase-1 assay: Recombinant caspase-1 and a drug were allowed to react, and then activity measurement was performed using a caspase-1 assay kit (R&D Systems Inc., Minneapolis, Minn., USA).
B. Dermatitis induction: Hairs on the back of each mouse were removed and maintained for 24 hours, and then 150 μl of a 1% 2,4-dinitrochlorobenzene(DNCB) solution (acetone: olive oil=3:1) was applied on the hair-removed site once a week for 3 weeks. After week 3, the DNCB solution was applied on the site twice a week for 3 weeks to induce atopic dermatitis.
C. Treatment: Mice were divided into 6 groups, and 0.5% DMSO was applied on animals as a control and 200 μl of each of 0.01 μM, 0.1 μM, and 1 μM test material was applied on animals as experimental groups for 3 weeks. 50 μl of 0.1% dexamethasone dissolved in a crude alcohol was applied on animals as a positive control at intervals of 2 days.

caspase-1 [3] = target: T2, caspase-1 (Homo sapiens, UniProt P29466); test: Caspase-1 assay using HMC-1 cell extracts; assay type: cell-based
T2 construct: a caspase-1 assay was conducted using cell extracts; endogenous in cells; host or cells: HMC-1 (human mast cells)
T2 sequence (P29466 120-297 limits assumed): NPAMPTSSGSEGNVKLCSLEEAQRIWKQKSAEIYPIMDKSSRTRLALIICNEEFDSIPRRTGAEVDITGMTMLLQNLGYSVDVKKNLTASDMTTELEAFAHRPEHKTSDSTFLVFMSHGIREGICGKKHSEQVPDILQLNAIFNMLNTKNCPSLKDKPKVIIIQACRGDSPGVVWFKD
T2 sequence (P29466 317-404 limits assumed): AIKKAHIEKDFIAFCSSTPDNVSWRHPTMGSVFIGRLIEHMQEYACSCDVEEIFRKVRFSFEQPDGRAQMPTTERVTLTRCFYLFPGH

Q: Cl.N=C(N)NC(=N)Nc1ccc(Cl)cc1 [IPS-07001] was tested. Which “IL-6 protein expression (western blotting)” value (IL-6, IL-22, IL-33) did it give?
A: The value was “decreased”.

Q: And the “IL-22 protein expression (western blotting)” value (IL-6, IL-22, IL-33)?
A: Its value is “decreased”.

Q: What about the “IL-33 protein expression (western blotting)” value (IL-6, IL-22, IL-33) of the same molecule?
A: Its value is “decreased”.

Q: And the “expression of active caspase-1” value (active caspase-1)?
A: Its value is “inhibited”.

Q: What about the “production and mRNA expression of various inflammatory cytokines” value (inflammatory cytokines) of the same molecule?
A: Its value is “significantly inhibited”.

Q: And the “IL-6 level in dorsal skin” value [1]?
A: The value was “significantly regulated”.

Q: What about the “caspase-1 activity in dorsal skin” value (caspase-1 [2]) of the same molecule?
A: The value was “significantly inhibited”.

Q: And the “caspase-1 activity in HMC-1 cells” value (caspase-1 [3])?
A: Its value is “significantly inhibited”.
